Reference: patent publication US4411925A, “Branched amides of L-aspartyl-d-amino acid dipeptides” (Pfizer Inc., priority 1980, dated 1983)
Square brackets hold non-standard residues; d marks the D form. Peptide text beside a SMILES is read from it. * marks the point of attachment. NHiPr = CC(C)N*; OiPr = CC(C)O*

Key:
[1] = factor used to calculate the theoretical sweetness of the blends; cited from earlier work
[2] = Sweetness potency: gustatory sweetness compared with sucrose standard by expert taste panel; type: in vivo; conditions: aqueous solutions compared with 7-9% sucrose
Protocol: The sweetness potency of the instant compounds was determined by comparison of their gustatory sweetnesses with sucrose. Aqueous solutions of the compound of formula (I) diluted to a suitable range of concentrations were compared with a sucrose standard by an expert taste panel. Comparisons were generally made with aqueous sucrose solutions of 7-9%, i.e., 7-9 g. per 100 ml. Higher sucrose concentrations have a distinctive mouthfeel which may influence results and lower sucrose concentration are not indicative of normal use situations. […] All of the sweetness potency values stated herein for the compounds of the invention were determined by this method.

[3] = prior art values (U.S. 3,492,131; Mazur et al.; Sukehiro et al.); cited from earlier work

| Compound | Sweetness potency [2] | also measured |
| --- | --- | --- |
| O=C1NS(=O)(=O)c2ccccc21.[Na] [sodium saccharin] |  | Sweetness potency factor [1]: 300 x sucrose |
| CC(C)[C@@H](NC(=O)[C@@H](N)CC(=O)O)C(=O)NC(C1CC1)C1CC1 [Example 23, L-Aspartyl-D-valine N-(dicyclopropylcarbinyl)amide] | 110 x sucrose |  |
| C[C@@H](NC(=O)[C@@H](N)CC(=O)O)C(=O)NC(C(C)(C)C)C(C)(C)C [Example 25, L-Aspartyl-D-alanine N-(2,2,4,4-tetramethyl-3-pentyl)amide] | 450 x sucrose |  |
| CSC(C)(C)C(NC(=O)[C@@H](C)NC(=O)[C@@H](N)CC(=O)O)C(C)C (stereo partly drawn) [Example 18, L-Aspartyl-D-alanine N-(2-methylthio-2,4-dimethylpentan-3-yl)amide] | 150 x sucrose |  |
| CC[C@@H](NC(=O)[C@@H](N)CC(=O)O)C(=O)NC(C(C)C)C(C)C [Example 22, L-Aspartyl-D-2-aminobutyric acid N-(2,4-dimethyl-3-pentyl)amide] | 100 x sucrose |  |
| CC(C)OC(=O)[C@@H](C)NC(=O)[C@@H](N)CC(=O)O [L-aspartyl-D-alanine isopropyl ester] (H-Asp-[dA]-OiPr) |  | sweetness relative to sucrose [3]: up to 125 times sucrose |
| CC(C)NC(=O)[C@H](NC(=O)[C@@H](N)CC(=O)O)C(C)C [Example 24, L-Aspartyl-D-valine N-isopropylamide] (H-Asp-[dV]-NHiPr) | 1-2 x sucrose |  |
| CC[C@@H](NC(=O)[C@@H](N)CC(=O)O)C(=O)NC(C1CC1)C1CC1 [Example 20, L-Aspartyl-D-2-aminobutyric acid N-(dicyclopropylcarbinyl)amide] | 500 x sucrose |  |
| C[C@@H](NC(=O)[C@@H](N)CC(=O)O)C(=O)NC(C1CC1)C(C)(C)C (mixture of isomers) [Example 6, L-Aspartyl-D-alanine N-(dl-t-butylcyclopropylcarbinyl)amide] | 1200 x sucrose |  |
| C[C@@H](NC(=O)[C@@H](N)CC(=O)O)C(=O)NC1C(C)(C)SC1(C)C [Example 16, L-Aspartyl-D-alanine N-(2,2,4,4-tetramethylthietan-3-yl)amide] | 2000 x sucrose |  |
| C[C@@H](NC(=O)[C@@H](N)CC(=O)O)C(=O)NC1C(C)(C)CSC1(C)C (mixture of isomers) [L-Aspartyl-D-alanine N-(2,2,4,4-tetramethyltetrahydrothiophene-3-yl)amide] | 800 x sucrose |  |
| C[C@@H](NC(=O)[C@@H](N)CC(=O)O)C(=O)NC1C(C)(C)S(=O)(=O)C1(C)C [Example 17, L-Aspartyl-D-alanine N-(2,2,4,4-tetramethyl-1,1-dioxothietan-3-yl)amide] | 1000 x sucrose |  |
| CC[C@@H](NC(=O)[C@@H](N)CC(=O)O)C(=O)NC1C(C)(C)S(=O)(=O)C1(C)C [Example 21, L-Aspartyl-D-2-aminobutyric acid N-(2,2,4,4-tetramethyl-1,1-dioxothietan-3-yl)amide] | 200 x sucrose |  |
| C[C@@H](NC(=O)[C@@H](N)CC(=O)O)C(=O)NC1C(C)(C)CCC1(C)C [Example 7, L-Aspartyl-D-alanine N-(2,2,5,5-tetramethylcyclopent-l-yl)amide] | 800 x sucrose |  |
| C[C@@H](NC(=O)[C@@H](N)CC(=O)O)C(=O)NC(C1CC1)C1CC1 [[I, R^a =CH3, R=CH(Δ)2], L-Aspartyl-D-alanine N-(dicyclopropylcarbinyl)amide] | 1200 x sucrose |  |
| CC1CCCCC1NC(=O)[C@@H](C)NC(=O)[C@@H](N)CC(=O)O (stereo partly drawn) [Example 4, L-Aspartyl-D-alanine N-(2-methycyclohexyl)amide] | 250 x sucrose |  |
| L-Aspartyl-D-alanine N-(2,2,4,4-tetramethyltetrahydrothiophene-3-yl)amide [Example 14] | 500 x sucrose |  |
| CC1CSCC(C)C1NC(=O)[C@@H](C)NC(=O)[C@@H](N)CC(=O)O (stereo partly drawn) [Example 12, L-Aspartyl-D-alanine-N-(3,5-dimethyltetrahydrothiopyran-4-yl)amide] | 200 x sucrose |  |
| C[C@@H](NC(=O)[C@@H](N)CC(=O)O)C(=O)NC1C(=O)OCC1(C)C (mixture of isomers) [Example 27, L-Aspartyl-D-alanine N-(DL-2-amino-3,3-dimethyl-4-hydroxybutanoic acid lactone)amide] | 100 x sucrose |  |
| CC(C)C(NC(=O)[C@@H](C)NC(=O)[C@@H](N)CC(=O)O)C(C)(C)O (stereo partly drawn) [Example 26, L-Aspartyl-D-alanine N-(2-hydroxy-2,4-dimethyl-3-pentyl)amide] | 125 x sucrose |  |
| CC1CCCC(C)C1NC(=O)[C@@H](C)NC(=O)[C@@H](N)CC(=O)O (relative stereo) [Example 3] | 600 x sucrose |  |
